Data as given in publication PMC8548882, “The Trp-rich Antimicrobial Amphiphiles With Intramolecular Aromatic Interactions for the Treatment of Bacterial Infection” (Frontiers in Microbiology, 2021).
Ends that are not written are not given here.

Columns and labels:
RAW 264.7 cells = assay type: cell-based, murine; details: RAW264.7; ratio of IC50 to GM
Protocol: (§1) The MTT (3-[4,5 dimethylthiozol-2-yl]-2,5-diphenylterazoliumbromide) dye was selected to analyze the cytotoxicity of peptides against the murine macrophage cell RAW 264.7 (National Collection of Authenticated Cell Cultures, Shanghai, China), human embryonic kidneys (HK293T), and the porcine intestinal epithelial cells (IPEC-J2) as in our previously study ([Li et al., 2020]). In short, the cells (10^4 cells/well) were seeded into 96-well plates and were cultivated overnight. Then the peptides with different final concentration (2μM, 4μM, 8μM, 16μM, 32μM, 64μM, and 128μM) were introduced into the plate and challenged with cells for 24h. After overnight incubation, the 50μl MTT (0.5mg/ml) was added into the cell cultures for 4h. Then the plate was centrifuged to discard the supernatants and obtain the formazan crystals. The DMSO (dimethyl sulfoxide) was employed as a solvent to dissolve the formazan crystals on the bottom of the plate and the optical density was read at 492nm with a microplate reader.

P. aeruginosa ATCC 27853 = test: Time-kill curve; assay type: cell-based, Pseudomonas aeruginosa ATCC 27853; details: 1×10^5CFU/ml, colony counting on MHA, mean of three assays
Protocol: The logarithmic phase bacterial cells (P. aeruginosa ATCC 27853 and S. aureus ATCC 29213) were harvested and diluted to 1×10^5CFU/ml ([Dou et al., 2017]). The testing peptides at different concentrations (1×MIC, 2×MIC, and 4×MIC) were challenged with bacteria at a series of time intervals (0, 5, 10, 30, 60, and 120min). Then the reaction system was diluted several times and plated on Mueller-Hinton agar (MHA, AoBoX, Shanghai, China) plates. The plates were incubated 24h at 37°C in order to count the bacterial colonies. The data were the means of three times independent assays.

HEK 293T cells = assay type: cell-based, human; details: ratio of IC50 to GM
Protocol: as §1

S.typhimurium 7731 = assay type: cell-based, Salmonella enterica serovar typhimurium C77-31
Text: (§2) The tested strains were kindly provided by the laboratory of Veterinary Microbiology and Immunology, the College of Veterinary Medicine, Northeast Agricultural University (gram-negative bacteria, Salmonella enterica serovar typhimurium C77-31, Salmonella typhimurium ATCC 14028, Escherichia coli ATCC 25922, Pseudomonas aeruginosa ATCC 27853 and gram-positive bacteria, Staphylococcus aureus ATCC 29213, Staphylococcus aureus ATCC 43300, Staphylococcus epidermidis ATCC 12228, Staphylococcus aureus ATCC 25923).

S.epidermidis 12228 = assay type: cell-based, Staphylococcus epidermidis ATCC 12228
Text: as §2

P. aeruginosa 27853 = assay type: cell-based, Pseudomonas aeruginosa ATCC 27853
Protocol: The famous microtiter dilution, National Committee for Clinical Laboratory Standards, was adopted to measure the antimicrobial ability of the engineering peptides ([Chou et al., 2016]). In brief, the 50μl with serial dilution was incubated with the same volume bacteria (1×10^5CFU/ml in midi-logarithmic phase) in a 96-well plate 18–24h at 37°C. The positive control was the bacteria treated with culture medium and the negative control was merely culture medium. […] The antimicrobial performance of peptides against P. aeruginosa 27853 cells was further studied under the complicated physiological conditions ([Lyu et al., 2016]). […] The serum was also taken into the consideration for the adverse impact on the antimicrobial effect of peptides.

[1] = system: P. aeruginosa ATCC 27853 cells; test: Cytoplasmic membrane depolarization, diSC3-5; assay type: cell-based, Pseudomonas aeruginosa ATCC 27853; details: 1/2 MIC, 0s to 1,020s
Protocol: The cytoplasmic membrane depolarization of peptides was analyzed with membrane potential-sensitive dye DISC3-5 ([Ma et al., 2011]). First, 0.4μM DISC3-5 (Sigma-Aldrich, Shanghai, China) was incubated with the P. aeruginosa ATCC 27853 cells (OD600=0.05) suspended in 5mM HEPES buffer supplied with 20mM glucose for 1h. Then 100mMK^+ was introduced into the mixture for the reason of keeping K^+ concentration equilibration of bacterial cytoplasmic and extracellular conditions. Afterward, the peptides were reacted with the bacterial cells and the fluorescence value was tracked over time to plot the fluorescence curve (excitation λ=622nm, emission λ=670nm).

[2] = system: panel of gram-negative and gram-positive bacteria; details: over the eight strains of Table 2
Protocol: (§3) The famous microtiter dilution, National Committee for Clinical Laboratory Standards, was adopted to measure the antimicrobial ability of the engineering peptides ([Chou et al., 2016]). In brief, the 50μl with serial dilution was incubated with the same volume bacteria (1×10^5CFU/ml in midi-logarithmic phase) in a 96-well plate 18–24h at 37°C. The positive control was the bacteria treated with culture medium and the negative control was merely culture medium. The MICs (minimum inhibitory concentrations) were defined as the lowest concentration of peptides that prevented the production of visible turbidity ([Tossi et al., 2000]).

S.typhimurium 14028 = assay type: cell-based, Salmonella typhimurium ATCC 14028
Text: as §2

[3] = CD spectrum, secondary structure; assay type: physicochemical; details: 150μM peptide
Protocol: The circular dichroism (CD) spectrum was further determined by analysis the secondary structure of peptides in different membrane-mimic environments ([Dong et al., 2014b]). The two totally different mimic environments were 10mM PBS and 50% TFE solution and the final concentration of peptides was fixed at 150μM Then the samples were transferred into a rectangular quartz cuvette (1mm path length) and further underwent the scanning of J-820 spectropolarimeter (Jasco, Tokyo, Japan) at the speed of 50nm/min. The wavelengths ranged from 190 to 250nm and were recorded to plot the observed ellipticity curve. The observed value at each time point was the average of three scans. The results were presented of mean residue ellipticity, which was calculated from the observed ellipticity as follows. θM=θobs⋅1000/(c⋅l⋅n); ([Zhu et al., 2014a])

S.aureus 29213 = assay type: cell-based, Staphylococcus aureus ATCC 29213; details: 29213
Text: as §2, §3

With VKKWVKKWVKKWVKKW-NH2 [VW5] the “Therapeutic index (TI)” value (RAW 264.7 cells) was 1860.86, the “time to complete eradication of bacterial cells” value (P. aeruginosa ATCC 27853; 2×MIC) was 10 min and the “time to complete eradication of bacterial cells” value (P. aeruginosa ATCC 27853; 4×MIC) was 30 min. The “Therapeutic index (TI)” value (HEK 293T cells) was 5090.03, the MIC (S.typhimurium 7731) was 1 µM and the MIC (S.epidermidis 12228) was 2 µM. The “change of MIC compared to the control” value (P. aeruginosa 27853; 12.5% serum) was “did not change”, the “increase of MIC compared to the control” value (P. aeruginosa 27853; 50% serum) was “fourfold” and the “cytoplasmic membrane depolarization, diSC3-5 fluorescence over time” value [1] was “dose-dependent effect”. For the same substance, the “GMMIC, geometric mean of the MICs” value [2] was 1.68 µM, the MIC (S.typhimurium 14028) was 2 µM and the “secondary structure (CD)” value ([3]; 10mM sodium phosphate buffer) was “unordered conformation”. For the same substance, the “secondary structure (CD)” value ([3]; 50% TFE) was “α-helical tendency” and the MIC (S.aureus 29213) was 2 µM.
